Key:
human subjects [1] = assay: Human olfactory psychophysics: valence rating by OR7D4 genotype; assay type: in vivo; conditions: for valence rating, OR7D4 RT/WM vs RT/RT subjects: 7-point scale, two concentrations pooled; for valence rating, RT/S84N subjects vs RT/RT controls: N=7 RT/S84N; for valence rating of OR7D4 WM/WM subjects relative to solvent propylene glycol: N=10 WM/WM; for valence rating, RT/P79L subjects vs RT/RT controls: N=30 RT/P79L
Description: (§1) Human olfactory psychophysics. All human subjects gave informed consent to participate in this study and were tested in a well-ventilated room. Normal human subjects (n=412; 218 female, 194 male; median age 34, age range 19-75) were pre-screened to exclude pregnant women and those with medical conditions causing general impairment of the sense of smell. All subjects completed two replicates of the test separated by at least 4 days. Odors were presented in amber vials as previously described (see, e.g., Keller, A., et al., Nat Neurosci 7, 337-338 (2004); herein incorporated by reference in its entirety) using bar-coded symbols to ensure that subjects were blind to the identity of all odors. The intensity and valence of 66 odors at two concentrations (“high” and “low”) and two solvents was rated using a 7-point scale. Thresholds were calculated using the single staircase method with seven reversals (see, e.g., Doty, R. L., et al., Chem Senses 20, 645-656 (1995); Doty, R. L. & Laing, D. G. in Handbook of Olfaction and Gustation (ed. Doty, R. L.) pp. 203-228 (Marcel Dekker, Inc., New York, 2003); each of which are herein incorporated by reference in their entireties). Threshold tests included both steroids as binary dilutions from […] (binary dilution 6) to 1: 134,217,728 (binary dilution 27). Subjects who could not reliably distinguish a 1:64 dilution of androstenone and androstadienone from solvent were operationally defined as anosmic to these odorous steroids, although it could not be excluded that these subjects could detect higher concentrations of these steroids (see, e.g., Bremner, E. A., et al., Chem Senses 28, 423-432 (2003); herein incorporated by reference in its entirety). Odor profiling used the method established by Dravnieks, et al. (see, e.g., Dravnieks, A., et al., Science 218, 799-801 (1982); herein incorporated by reference in its entirety).
Stimuli for olfactory psychophysics. All odors were presented as one ml of an odor dilution in either propylene glycol or paraffin oil in 20 ml amber glass vials. All of these compounds were used in the intensity and valence rating portion of the smell test.
Olfactory ratings. The intensity and valence of 66 odors were rated at two different concentrations (high and low) and the intensity and valence of the two solvents (paraffin oil and propylene glycol) was rated three times. Prior to these ratings, six stimuli that represented the spectrum of intensity and valence of the stimuli used in the study were presented to allow the subjects to calibrate the usage of the scale. The subjects were unaware that the six first stimuli served that purpose. After the rating of the 66 odors at two concentrations and the rating of the solvents, 15 stimuli that were presented earlier in the experiment were repeated to test for the effect of adaptation and olfactory fatigue on the ratings. The subjects were not aware that the last 15 stimuli served this purpose. These 15 stimuli and the six first stimuli were not included in the analysis presented here. […] The 15 control stimuli and their concentrations were as follows:
In addition there was a button on the screen labeled “I can't smell anything” and a button labeled “Don't Know”. If the “Don't Know” button was pressed, no rating was recorded. If the “I can't smell anything” button was pressed, a 0 was recorded for the intensity rating and no rating was recorded for the valence rating. The other ratings were transformed according to the following scheme:
• Extremely Weak=1 • Very Weak=2 • Slightly Weak=3 • Neither Weak nor Strong=4 • Slightly Strong=5 • Very Strong=6 • Extremely Strong=7 Valence Rating • Extremely Unpleasant=1 • Very Unpleasant=2 • Slightly Unpleasant=3 • Neither Unpleasant nor Pleasant=4 • Slightly Pleasant=5 • Very Pleasant=6 • Extremely Pleasant=7
Averages for the ratings of the different genotypes were calculated. […]

human subjects [2] = assay: Human olfactory psychophysics: detection thresholds (single staircase method); assay type: in vivo; conditions: for detection threshold, RT/S84N subjects vs RT/RT controls: N=3 RT/S84N; for detection threshold, RT/P79L subjects vs RT/RT subjects: N=12 RT/P79L; for detection threshold, OR7D4 RT/WM vs RT/RT subjects: binary dilutions in propylene glycol, N=49 RT/WM, N=47 RT/RT
Description: as §1
For the descriptors task, the following odors and concentrations were used: propylene glcol (pure), pentadecalactone 1/500, vanillin 1/200, and androstenone 1/10,000. The following odors were used for thresholding: adrostenone and androstadienone. These were tested at an initial concentration of binary dilution 27 […] in propylene glycol and moved from there in binary steps. The range of dilutions tested was from binary dilution 27 (1:134,217,728) to binary dilution 6 (1:64). Odor vials used for intensity and valence ratings and the assigning of descriptors to odors were used for 40 sessions and then replaced by a new set. Master stocks of each odor were established at the beginning of the study to avoid intertrial variability in odor concentrations.
Threasholding. Detection thresholds (FIG. 3c and FIG. 5b-c) were determined using the “Single Staircase Threshold Detection Method” (see, e.g., Buck, L., et al., Cell 65, 175-187 (1991); Menashe, I., et al., Nat Genet. 34, 143-144 (2003); each of which are herein incorporated by reference in their entireties). This method produced very accurate data on the threshold concentration of a given dour and was easy to administer and for the subjects to perform. The thresholds for each subject on two occasions was tested at least four days apart. This helped to control for inter-trial variability in olfactory performance. The average difference between the thresholds determined on the two days was three binary dilution steps for andmstenone and five for androstadienone.
A custom computer-controlled thresholding test was administered as a self-test to each subject. Briefly, subjects were instructed to sniff two vials, one containing the solvent, the other a dilution of the odorant. Both vials have barcode labels and the procedure was done at a computer equipped with a scanner. Subjects are asked to scan the vial with the stronger odor. Depending on their answer, the procedure was repeated at an adjusted concentration. […]

SMILES	valence rating, OR7D4 RT/WM vs RT/RT subjects (human subjects [1])	valence rating, RT/S84N subjects vs RT/RT controls (human subjects [1])	valence rating of OR7D4 WM/WM subjects relative to solvent propylene glycol (human subjects [1])	valence rating, RT/P79L subjects vs RT/RT controls (human subjects [1])	detection threshold, RT/S84N subjects vs RT/RT controls (human subjects [2])	detection threshold, RT/P79L subjects vs RT/RT subjects (human subjects [2])	detection threshold, OR7D4 RT/WM vs RT/RT subjects (human subjects [2])	incidence of specific anosmia, OR7D4 RT/WM vs RT/RT subjects (human subjects [2]; p<0.05, chi-square test)	proportion of subjects anosmic, RT/P79L vs RT/RT subjects (human subjects [2]; p=0.018, chi-square analysis)
C[C@@]12C=CC[C@H]1[C@@H]1CCC3=CC(=O)CC[C@]3(C)[C@H]1CC2 [androstadienone, androsta-4,16-dien-3-one]	more pleasant	less pleasant	more unpleasant than the solvent	more pleasant	higher	lower	higher detection thresholds	–	–
C[C@]12CCC(=O)C[C@@H]1CC[C@@H]1[C@@H]2CC[C@]2(C)C=CC[C@@H]12 [androstenone, 5α-androst-16-en-3-one]	more pleasant	less pleasant	more unpleasant than the solvent	more pleasant	higher	lower	higher detection thresholds	greater incidence	lower

Source: patent publication US8298781B2, “Compositions and methods for characterizing and regulating olfactory sensation” (Duke University, priority 2007, dated 2012)
